Source: US20050250742A1 (Pfizer Inc., priority 2004, published 2005)

Legend:
[1] = molecular target: T1, PIN1-CD (catalytic peptidyl-prolyl isomerase domain, devoid of the PIN1 WW domain) (Homo sapiens, UniProt Q13526); assay: Pin1 peptidyl-prolyl isomerase assay (protease-coupled, spectrophotometric); assay type: biochemical; conditions: catalytic PPIase domain without WW domain; 15° C., pH 7.5, 100 μM Suc-AEPF-pNA
T1 construct: PIN1 peptide containing the catalytic peptidyl-prolyl isomerase domain but devoid of the PIN1 WW domain
T1 sequence (Q13526 52-163 limits assumed): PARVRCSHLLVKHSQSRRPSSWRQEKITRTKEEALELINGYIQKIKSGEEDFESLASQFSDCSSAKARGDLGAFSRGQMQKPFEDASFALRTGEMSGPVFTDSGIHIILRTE
Text: PIN1 is a phosphorylation dependent peptidyl-prolyl isomerase. The PIN1 assay is a spectrophotometric assay based on the coupled chymotrypsin or subtilisin catalyzed, cis-trans conformation dependent cleavage of a para-nitroanaline containing peptide substrate. […] Cleavage of the isomerized peptide releases para-nitroanaline, which can be monitored by an increase in absorbance at 390 nm. The PIN1 peptide substrate, succinyl-[…]-proline-phenylalanine-paranitroaniline (Suc-AEPF-pNA) (Bachem), is kept in a predominantly cis conformation with an anhydrous TFE/LiCl solvent mixture.
Upon dilution into an aqueous assay mixture containing PIN1, the peptide substrate undergoes PIN1 catalyzed isomerization to the trans conformation. […] To minimize the spontaneous isomerization of the peptide substrate, reactions are performed at 15° C. A typical reaction contains 25 mM MOPS pH 7.5, 0.5 mM TCEP, 2% DMSO, 5 μl of a 25 mg/ml solution of subtilisin Carlsberg, 50 nM PIN1-PPiase, and 100 μM Suc-AEPF-pNA peptide substrate. Reactions are cooled to 15° C. and initiated with the addition of Suc-AEPF-pNA. The absorbance at 390 nm is monitored continuously until all substrate has been converted to the cleaved product. […] The rate constant k is linearly proportional to the concentration of active enzyme present in the assay mixture once the rate constant for the spontaneous isomerization is subtracted. […] Therefore, during inhibition experiments, the IC50, for non-tight binding inhibitors, is essentially the inhibition constant Ki.
(§1) In Table 1, the Ki data reported under the PIN1—CD heading corresponds to testing with PIN1 peptide containing the catalytic peptidyl-prolyl isomerase domain but devoid of the PIN1 WW domain. Similarly, the dissociation constant (Kd) data under PIN1-CD refers to testing with a peptide containing the catalytic PIN1 domain but devoid of the PIN1 WW domain.

[2] = molecular target: T2, PIN1-CD (catalytic PIN1 domain, devoid of the PIN1 WW domain) (Homo sapiens, UniProt Q13526); assay: Dissociation constant (Kd) with PIN1 catalytic domain; assay type: binding; conditions: peptide containing the catalytic PIN1 domain
T2 construct: PIN1 peptide containing the catalytic peptidyl-prolyl isomerase domain but devoid of the PIN1 WW domain
T2 sequence (Q13526 52-163 limits assumed): as above
Text: as §1

| Ki [1] | Kd [2] | SMILES |
| --- | --- | --- |
| < 10000 nM | < 10000 nM | O=C(OCCCCc1ccccc1)[C@@H]1CCCCN1S(=O)(=O)N[C@@H](COP(=O)(O)O)Cc1ccccc1 [Example 5b1, 1-(2-Phenyl-1-phosphonooxymethyl-ethylsulfamoyl)-piperidine-2S-carboxylic acid 4-phenyl-butyl ester] |
| < 10000 nM | < 2000 nM | O=C(N[C@H](CCc1ccccc1)COP(=O)(O)O)c1ccc2ccccc2c1 [Example 37, Phosphoric acid mono-{2-[(1-naphthalen-2-yl-methanoyl)-amino]-4-phenyl-butyl}ester] |
| < 10000 nM | < 10000 nM | O=C(O)[C@@H]1CCCCN1S(=O)(=O)N[C@@H](COP(=O)(O)O)Cc1ccccc1 [Example 5b2, 1-(2-Phenyl-1-phosphonooxymethyl-ethylsulfamoyl)-piperidine-2-carboxylic acid] |
| < 1000 nM | < 1000 nM | CC(C)(C)C(=O)N[C@@H](COP(=O)(O)O)Cc1cccc(F)c1 [Example 25-30, Phosphoric acid mono-[(R)-2-(2,2dimethyl-propanoylamino)-3-(3-fluoro-phenyl)-propyl]ester] |
| < 1000 nM | < 1000 nM | O=C(O[C@@H](COP(=O)(O)O)Cc1ccccc1)c1ccc2ccccc2c1 [Example 49, Naphthalene-2-carboxylic acid (R)-2-phenyl-1-phosphonooxymethyl-ethyl ester] |
| < 1000 nM | < 1000 nM | Cc1cccc(C[C@H](COP(=O)(O)O)NC(=O)c2ccc3ccccc3c2Br)c1 [Example 25-34, Phosphoric acid mono-((R)-2-{[1-(1-bromo-naphthalen-2-yl)-methanoyl]-amino}-3-m-tolyl-propyl)ester] |
| < 1000 nM | < 1000 nM | O=C(O[C@@H](COP(=O)(O)O)Cc1cccc(F)c1)c1ccc2ccccc2c1 [Example 74, Naphthalene-2-carboxylic acid (R)-1-(3-fluoro-benzyl)-2-phosphonooxy-ethyl ester] |
| < 10000 nM | < 10000 nM | O=C(O)[C@@H]1CCCCN1C(=O)N[C@@H](COP(=O)(O)O)Cc1ccccc1 [Example 16d, 1-(2-Phenyl-1-phosphonooxymethyl-ethylcarbamoyl)-piperidine-2-carboxylic acid] |
| < 100000 nM | < 10000 nM | CC(C)(C)OC(=O)N[C@@H](COP(=O)(O)O)Cc1cccnc1 [Example 30, (1-Phosphonooxymethyl-2-pyridin-3-yl-ethyl)-carbamic acid tert-butyl ester] |
| < 1000 nM | < 1000 nM | COc1ccc2cc(C(=O)N[C@@H](COP(=O)(O)O)Cc3cccc(F)c3)ccc2c1 [Example 25-32, Phosphoric acid mono-((R)-3-(3-fluoro-phenyl)-2-{[1-(6-methoxy-naphthalen-2-yl)-methanoyl]-amino}-propyl)ester] |
| < 10000 nM | < 10000 nM | O=P(O)(O)OC[C@@H](Cc1ccccc1)NS(=O)(=O)N1CCCC[C@H]1c1nnc(Cc2ccccc2)o1 [Example 5b5, Phosphoric acid mono-{(R)-2-[(S)-2-(5-benzyl-[1,3,4]oxadiazol-2-yl)-piperidine-1-sulfonylamino]-3-phenyl-propyl}ester] |
| < 1000 nM | < 1000 nM | O=C(N[C@@H](COP(=O)(O)O)Cc1cccc(F)c1)c1ccc2ccccc2c1Br [Example 25-31, Phosphoric acid mono-[(R)-2-{[1-(1-bromo-naphthalen-2-yl)-methanoyl]-amino}-3-(3-fluoro-phenyl)-propyl]ester] |
| < 1000 nM | < 1000 nM | COc1ccc2cc(C(=O)N[C@@H](COP(=O)(O)O)Cc3cccc(C)c3)ccc2c1 [Example 25-35, Phosphoric acid mono-((R)-2-{[1-(6-methoxy-naphthalen-2-yl)-methanoyl]-amino}-3-m-tolyl-propyl)ester] |
| < 1000 nM |  | O=C(N[C@@H](CCP(=O)(O)O)Cc1cccc(F)c1)c1cc2ccccc2s1 [Example 71, ([(R)-3-[(Benzo[b]thiophene-2-carbonyl)-amino]4-(3-fluoro-phenyl)-butyl]-phosphonic acid)] |
| < 1000 nM | < 1000 nM | O=C(O[C@@H](COP(=O)(O)O)Cc1cccc(F)c1)c1cc2ccccc2s1 [Example 54] |
| < 10000 nM |  | CC(C)C(=O)N[C@@H](COP(=O)(O)O)Cc1ccccc1 [Example 25-15] |
| < 1000 nM | < 1000 nM | O=C(N[C@@H](COP(=O)(O)O)Cc1ccccc1)c1ccc2[nH]cnc2c1 [Example 25-23, Phosphoric acid mono-{(R)-2-[(1H-benzoimidazole-5-carbonyl)-amino]-3-phenyl-propyl}ester] |
